Measured values taken from US20090304692A1, “TRIAZINE COMPOUNDS AS PI3 KINASE AND MTOR INHIBITORS” (Wyeth, priority 2008, published 2009).
Values joined by “and” are separate entries in the source; they are usually repeats but may differ in a detail not shown here. Equal entries are not always repeated. Where two headings read alike, the source gives them in different places.

Legend:
PI3K-α = PI3K-α (Homo sapiens, UniProt P42336); assay: PI3K-alpha fluorescence polarization assay; settings: read-out: IC50 PI3Kα
PI3K-γ = PI3K-γ (Homo sapiens, UniProt P48736); assay: PI3K-gamma fluorescence polarization assay; settings: read-out: IC50 PI3Kγ
Human mTOR (FLAG-TOR) = Human mTOR (FLAG-TOR) (Homo sapiens, UniProt P42345); assay: mTOR kinase assay (DELFIA format, purified enzyme); assay type: biochemical; settings: read-out: IC50 mTOR
[1] = system: human prostate PC3-mm2 tumor cell line; assay: In vitro cell culture growth assay (MTS), PC3-mm2; assay type: cell-based; settings: Homo sapiens, PC3MM2, 72 h
[2] = system: human breast MDA-MB-361 tumor cell line; assay: In vitro cell culture growth assay (MTS), MDA-MB-361; assay type: cell-based; settings: Homo sapiens, MDA-MB-361, 72 h; MTS cell growth assay, three days after drug treatment; read-out: IC50 MDA-MB-361
[3] = MTS cell growth assay, three days after drug treatment, read-out: IC50 PC3-mm2

PI3K-α, sequence (P42336 whole entry, species assumed): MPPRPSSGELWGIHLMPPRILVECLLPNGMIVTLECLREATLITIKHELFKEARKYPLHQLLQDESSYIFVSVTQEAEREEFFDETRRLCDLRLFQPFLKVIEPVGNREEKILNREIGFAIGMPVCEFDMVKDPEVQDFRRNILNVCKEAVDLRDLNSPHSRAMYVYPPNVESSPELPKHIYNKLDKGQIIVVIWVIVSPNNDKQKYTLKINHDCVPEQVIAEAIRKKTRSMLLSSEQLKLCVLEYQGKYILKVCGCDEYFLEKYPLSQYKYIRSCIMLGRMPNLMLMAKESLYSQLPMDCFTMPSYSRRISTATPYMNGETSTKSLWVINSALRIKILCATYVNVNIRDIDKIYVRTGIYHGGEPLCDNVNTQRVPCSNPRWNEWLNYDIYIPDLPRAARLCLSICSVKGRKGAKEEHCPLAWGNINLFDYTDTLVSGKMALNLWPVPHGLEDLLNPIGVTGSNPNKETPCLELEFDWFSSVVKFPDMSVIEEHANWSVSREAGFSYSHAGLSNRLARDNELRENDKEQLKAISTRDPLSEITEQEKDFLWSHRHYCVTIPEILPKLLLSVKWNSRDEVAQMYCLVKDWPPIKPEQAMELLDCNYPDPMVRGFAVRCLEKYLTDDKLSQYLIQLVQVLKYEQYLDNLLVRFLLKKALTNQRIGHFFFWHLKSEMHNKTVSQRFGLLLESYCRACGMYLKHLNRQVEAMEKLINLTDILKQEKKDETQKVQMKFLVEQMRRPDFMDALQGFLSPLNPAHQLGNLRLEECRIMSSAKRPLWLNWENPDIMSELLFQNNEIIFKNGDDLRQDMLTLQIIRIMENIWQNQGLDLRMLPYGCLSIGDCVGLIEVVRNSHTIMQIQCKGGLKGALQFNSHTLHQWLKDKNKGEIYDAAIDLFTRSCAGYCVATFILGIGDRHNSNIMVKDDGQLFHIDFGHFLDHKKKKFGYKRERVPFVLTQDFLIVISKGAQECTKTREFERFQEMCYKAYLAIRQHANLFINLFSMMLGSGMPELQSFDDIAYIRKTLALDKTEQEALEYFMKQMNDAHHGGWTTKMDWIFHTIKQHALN
PI3K-α, sequence (P27986 whole entry partner, species assumed): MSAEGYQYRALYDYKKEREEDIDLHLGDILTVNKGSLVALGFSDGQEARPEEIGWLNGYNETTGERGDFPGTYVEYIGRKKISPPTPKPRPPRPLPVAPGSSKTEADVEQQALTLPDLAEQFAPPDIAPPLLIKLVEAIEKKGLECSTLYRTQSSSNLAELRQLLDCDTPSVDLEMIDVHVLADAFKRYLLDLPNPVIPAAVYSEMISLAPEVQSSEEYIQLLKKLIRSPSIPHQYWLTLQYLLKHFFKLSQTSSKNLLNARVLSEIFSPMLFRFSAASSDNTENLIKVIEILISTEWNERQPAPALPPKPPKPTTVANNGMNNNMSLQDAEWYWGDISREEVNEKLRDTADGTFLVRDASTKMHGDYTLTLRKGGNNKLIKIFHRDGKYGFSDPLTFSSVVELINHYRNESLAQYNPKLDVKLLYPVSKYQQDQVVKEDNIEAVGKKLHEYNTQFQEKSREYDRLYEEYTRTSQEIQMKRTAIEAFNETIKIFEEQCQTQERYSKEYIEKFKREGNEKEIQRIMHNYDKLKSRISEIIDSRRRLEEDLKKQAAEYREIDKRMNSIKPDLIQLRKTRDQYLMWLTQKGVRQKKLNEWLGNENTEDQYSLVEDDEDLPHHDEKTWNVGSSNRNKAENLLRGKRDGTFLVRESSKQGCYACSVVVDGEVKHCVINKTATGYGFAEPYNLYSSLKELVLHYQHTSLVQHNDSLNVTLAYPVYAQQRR
Human mTOR (FLAG-TOR), sequence (P42345 1360-2549 limits assumed): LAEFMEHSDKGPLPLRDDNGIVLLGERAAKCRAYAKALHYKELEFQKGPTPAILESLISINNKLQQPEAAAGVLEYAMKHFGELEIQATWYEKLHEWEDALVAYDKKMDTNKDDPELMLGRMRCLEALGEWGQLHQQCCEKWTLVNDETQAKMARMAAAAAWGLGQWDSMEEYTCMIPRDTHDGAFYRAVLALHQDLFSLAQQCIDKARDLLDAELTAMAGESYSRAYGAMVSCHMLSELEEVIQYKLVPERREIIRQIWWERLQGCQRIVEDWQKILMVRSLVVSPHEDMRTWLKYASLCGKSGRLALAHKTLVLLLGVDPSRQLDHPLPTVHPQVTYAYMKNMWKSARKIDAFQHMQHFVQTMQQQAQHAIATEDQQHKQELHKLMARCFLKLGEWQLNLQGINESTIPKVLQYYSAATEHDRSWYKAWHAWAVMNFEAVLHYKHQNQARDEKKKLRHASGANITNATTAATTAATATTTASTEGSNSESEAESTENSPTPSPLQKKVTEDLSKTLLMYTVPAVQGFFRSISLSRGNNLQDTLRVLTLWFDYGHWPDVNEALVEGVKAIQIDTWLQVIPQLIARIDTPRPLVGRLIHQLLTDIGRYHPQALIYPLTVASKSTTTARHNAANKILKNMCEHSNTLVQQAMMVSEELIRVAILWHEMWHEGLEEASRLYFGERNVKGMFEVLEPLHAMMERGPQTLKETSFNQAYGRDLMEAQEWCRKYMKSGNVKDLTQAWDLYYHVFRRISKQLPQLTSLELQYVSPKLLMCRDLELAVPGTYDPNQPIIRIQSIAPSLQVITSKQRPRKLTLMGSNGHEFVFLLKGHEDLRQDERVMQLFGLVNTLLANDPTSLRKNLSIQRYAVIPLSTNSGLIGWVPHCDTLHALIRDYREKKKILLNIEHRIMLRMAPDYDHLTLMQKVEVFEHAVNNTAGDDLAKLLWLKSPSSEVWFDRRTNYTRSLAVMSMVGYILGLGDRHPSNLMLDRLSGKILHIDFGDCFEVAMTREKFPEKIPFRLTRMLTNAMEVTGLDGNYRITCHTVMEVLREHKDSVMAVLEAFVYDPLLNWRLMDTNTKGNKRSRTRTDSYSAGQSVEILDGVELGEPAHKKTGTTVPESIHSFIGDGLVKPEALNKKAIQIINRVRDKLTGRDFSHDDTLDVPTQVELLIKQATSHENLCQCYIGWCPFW
PI3K-γ, sequence (P48736 whole entry, species assumed): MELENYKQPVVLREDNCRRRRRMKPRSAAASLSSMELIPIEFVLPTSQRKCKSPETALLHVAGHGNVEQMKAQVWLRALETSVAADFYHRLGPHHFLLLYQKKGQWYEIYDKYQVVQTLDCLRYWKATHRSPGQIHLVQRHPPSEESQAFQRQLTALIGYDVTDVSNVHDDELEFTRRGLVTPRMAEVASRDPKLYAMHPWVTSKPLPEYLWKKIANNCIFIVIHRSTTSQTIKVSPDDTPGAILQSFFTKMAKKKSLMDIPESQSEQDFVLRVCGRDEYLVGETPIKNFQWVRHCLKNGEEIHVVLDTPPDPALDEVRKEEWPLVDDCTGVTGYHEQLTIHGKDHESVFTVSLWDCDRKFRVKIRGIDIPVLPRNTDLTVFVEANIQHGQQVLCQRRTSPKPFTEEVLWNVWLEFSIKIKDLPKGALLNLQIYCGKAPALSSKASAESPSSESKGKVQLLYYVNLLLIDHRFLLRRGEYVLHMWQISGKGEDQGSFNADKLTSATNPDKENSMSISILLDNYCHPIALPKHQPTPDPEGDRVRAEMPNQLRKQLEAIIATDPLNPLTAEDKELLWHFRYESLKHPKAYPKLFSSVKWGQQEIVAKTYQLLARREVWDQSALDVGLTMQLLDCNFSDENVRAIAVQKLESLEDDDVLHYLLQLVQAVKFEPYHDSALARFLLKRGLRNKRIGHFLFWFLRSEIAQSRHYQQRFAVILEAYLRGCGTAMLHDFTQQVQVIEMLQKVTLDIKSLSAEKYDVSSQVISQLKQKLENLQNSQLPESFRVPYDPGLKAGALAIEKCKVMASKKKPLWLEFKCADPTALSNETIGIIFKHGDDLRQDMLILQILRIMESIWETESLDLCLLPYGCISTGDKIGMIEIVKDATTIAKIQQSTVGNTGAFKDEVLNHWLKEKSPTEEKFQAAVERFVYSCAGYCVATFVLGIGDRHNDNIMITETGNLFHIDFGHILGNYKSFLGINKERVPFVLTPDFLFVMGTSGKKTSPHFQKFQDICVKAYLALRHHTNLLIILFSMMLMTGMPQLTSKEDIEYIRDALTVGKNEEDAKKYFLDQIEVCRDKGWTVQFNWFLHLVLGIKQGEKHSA

Row | IC50 (PI3K-α) | IC50 (PI3K-γ) | IC50 (Human mTOR (FLAG-TOR)) | IC50 [1, 3] | IC50 [2] | IC50 (PI3K-α; listed as 179) | IC50 (PI3K-γ; listed as 179) | IC50 ([1]; read-out: IC50 PC3-mm2, MTS cell growth assay, three days after drug treatment) | Structure (SMILES)
1 | 0.4 nM | 8 nM | 1 nM and 0.63 nM | 8.33 nM | < 3 nM | 1 nM | 13 nM | – | O=C(Nc1ccc(C(=O)N2CCC(N3CCCC3)CC2)cc1)Nc1ccc(-c2nc(N3CCOCC3)nc(N3CCOCC3)n2)cc1 [Example 74, 1-(4-(4,6-dimorpholino-1,3,5-triazin-2-yl)phenyl)-3-(4-(4-(pyrrolidin-1-yl)piperidine-1-carbonyl)phenyl)urea]
2 | 0.6 nM | 10 nM | 0.75 nM | – | < 3 nM | – | – | 7 nM | O=C(Nc1ccc(C(=O)N2CCC(N3CCCCC3)CC2)cc1)Nc1ccc(-c2nc(N3CCOCC3)nc(N3CCOCC3)n2)cc1 [Example 75, 1-(4-(1,4′-bipiperidine-1′-carbonyl)phenyl)-3-(4-(4,6-dimorpholino-1,3,5-triazin-2-yl)phenyl)urea]
3 | 0.3 nM | 4 nM | 0.68 nM | < 30 nM | < 30 nM | – | – | – | O=C(Nc1ccc(C(=O)N2CCNCC2)cc1)Nc1ccc(-c2nc(N3CCOCC3)nc(N3CCOCC3)n2)cc1 [Example 77, 1-(4-(4,6-dimorpholino-1,3,5-triazin-2-yl)phenyl)-3-(4-(piperazine-1-carbonyl)phenyl)urea]
4 | 10 nM | 31 nM | 1.6 nM | 47 nM | 30 nM | – | – | – | C[C@H]1COCCN1c1nc(-c2ccc(NC(=O)Nc3ccncc3)cc2)nc(N2CCOCC2)n1 [Example 89, 1-(4-{4-[(3S)-3-methylmorpholin-4-yl]-6-morpholin-4-yl-1,3,5-triazin-2-yl}phenyl)-3-pyridin-4-ylurea]
5 | 11 nM | 92 nM | 2.35 nM | 87 nM | 140 nM | – | – | – | Cc1cc(NC(=O)Nc2ccc(-c3nc(N4CCOCC4)nc(N4CCOC[C@@H]4C)n3)cc2)ccn1 [Example 92, 1-(4-{4-[(3S)-3-methylmorpholin-4-yl]-6-morpholin-4-yl-1,3,5-triazin-2-yl}phenyl)-3-(2-methylpyridin-4-yl)urea]
6 | 12 nM | 133 nM | 8.55 nM | 60 nM | 42 nM | – | – | – | CC(O)c1ccc(NC(=O)Nc2ccc(-c3nc(N4CCOCC4)nc(N4CCOC[C@@H]4C)n3)cc2)cc1 (stereo partly drawn) [Example 93, 1-[4-(1-hydroxyethyl)phenyl]-3-(4-{4-[(3S)-3-methylmorpholin-4-yl]-6-morpholin-4-yl-1,3,5-triazin-2-yl}phenyl)urea]
7 | 5 nM | 56 nM | 1 nM | 82 nM | 54 nM | – | – | – | CC(C)Oc1nc(-c2ccc(NC(=O)Nc3ccncc3)cc2)nc(N2CCOCC2)n1 [Example 94, 1-[4-(4-isopropoxy-6-morpholin-4-yl-1,3,5-triazin-2-yl)phenyl]-3-pyridin-4-ylurea]
8 | 48 nM | 101 nM | 2.75 nM | 364 nM | 333 nM | – | – | – | COC(=O)c1ccc(NC(=O)Nc2ccc(-c3nc(OC(C)C)nc(N4CCOCC4)n3)cc2)cc1 [Example 95, methyl 4-({[4-(4-isopropoxy-6-morpholin-4-yl-1,3,5-triazin-2-yl)phenyl]carbamoyl}amino)benzoate]
9 | 5 nM | 38 nM | 3.5 nM | 56 nM | 56 nM | – | – | – | O=C(Nc1ccncc1)Nc1ccc(-c2nc(C3=CCOCC3)nc(N3CCOCC3)n2)cc1 [Example 100, 1-{4-[4-(3,6-Dihydro-2H-pyran-4-yl)-6-morpholin-4-yl-[1,3,5]triazin-2-yl]-phenyl}-3-pyridin-4-yl-urea]

Row | Structure (SMILES) | IC50 (PI3K-α) | IC50 (PI3K-γ) | IC50 (Human mTOR (FLAG-TOR)) | IC50 [1, 3] | IC50 [2] | IC50 (PI3K-α; listed as 179) | IC50 (PI3K-γ; listed as 179) | IC50 ([1]; read-out: IC50 PC3-mm2, MTS cell growth assay, three days after drug treatment)
10 | O=C(Nc1ccc(C(=O)NC2CN3CCC2CC3)cc1)Nc1ccc(-c2nc(N3CCOCC3)nc(N3CCOCC3)n2)cc1 (stereo not shown) [Example 73, 4-(3-(4-(4,6-dimorpholino-1,3,5-triazin-2-yl)phenyl)ureido)-N-(quinuclidin-3-yl)benzamide] | 0.3 nM | 7 nM | 0.77 nM | 107 nM | 30 nM | – | – | –
